Our source for the IC50 values is patent US20250019387A1 (Frontier Medicines Corporation, priority 0001, published 2025).

Some results are limits rather than exact numbers.

Usually IC50 stands for the concentration at which inhibition is half-maximal.

The target of this experiment is KRAS G12C and cRAF (Ras-binding domain) interaction (Homo sapiens (Human), UniProt P01116, C118S/C51S/C80L/G12C). The experiment is described as follows: Inhibition of KRAS G12C and cRAF binding (AlphaScreen). The following applies: GMPPNP-loaded KRAS G12C, 19-20 hours incubation with compound; read-out: IC50 (Inhibition of KRAS G12C and cRAF Binding). The method, boiled down: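 Compounds (DMSO) preincubated 19-20 h at room temperature, then RBD with streptavidin donor and glutathione acceptor beads added in 25 mM Hepes pH 7.4, 150 mM NaCl, 5 mM MgCl2, 0.01% Triton X-100, 2% DMSO for 60-90 min. Emission 570 nm (excitation 680 nm); IC50 by 4-parameter fit. Counter-screen used biotin-AviTag-GST instead of RBD.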
Sequence of KRAS G12C and cRAF (Ras-binding domain) interaction (P01116 other isoform, or with tags, fused parts or gaps G12C/C51S/C80L/C118S): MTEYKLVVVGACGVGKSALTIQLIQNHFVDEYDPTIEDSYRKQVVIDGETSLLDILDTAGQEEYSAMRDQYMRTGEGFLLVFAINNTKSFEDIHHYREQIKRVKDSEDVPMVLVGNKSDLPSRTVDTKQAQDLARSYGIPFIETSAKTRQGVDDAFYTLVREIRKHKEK
For `COC/C=C/C(=O)N1CCC(N(C)c2nc(OC[C@@H]3CCCN3C)nc3c2CCN(c2cccc4cccc(Cl)c24)C3)C1` (stereo partly drawn) [Example 5, (E)-1-(3-((7-(8-chloronaphthalen-1-yl)-2-(((S)-1-methylpyrrolidin-2-yl)methoxy)-5,6,7,8-tetrahydropyrido[3,4-d]pyrimidin-4-yl)(methyl)amino)pyrrolidin-1-yl)-4-methoxybut-2-en-1-one], the IC50 was over 500 nM.

As to `COC(=O)/C=C/C(=O)N1CCC(N(C)c2nc(OC[C@@H]3CCCN3C)nc3c2CCN(c2cccc4cccc(Cl)c24)C3)C1` (stereo partly drawn) [Example 6, methyl(E)-4-(3-((7-(8-chloronaphthalen-1-yl)-2-(((S)-1-methylpyrrolidin-2-yl)methoxy)-5,6,7,8-tetrahydropyrido[3,4-d]pyrimidin-4-yl)(methyl)amino)pyrrolidin-1-yl)-4-oxobut-2-enoate], the IC50 was 10 to 100 nM.

For `COC(=O)/C=C\C(=O)N1CCC(N(C)c2nc(OC[C@@H]3CCCN3C)nc3c2CCN(c2cccc4cccc(Cl)c24)C3)C1` (stereo partly drawn) [Example 7, methyl (Z)-4-(3-((7-(8-chloronaphthalen-1-yl)-2-(((S)-1-methylpyrrolidin-2-yl)methoxy)-5,6,7,8-tetrahydropyrido[3,4-d]pyrimidin-4-yl)(methyl)amino)pyrrolidin-1-yl)-4-oxobut-2-enoate], the IC50 is over 500 nM.

For `CN(c1nc(OC[C@@H]2CCCN2C)nc2c1CCN(c1cccc3cccc(Cl)c13)C2)C1CCN(C(=O)/C=C/C(=O)O)C1` (stereo partly drawn) [Example 8, (E)-4-(3-((7-(8-chloronaphthalen-1-yl)-2-(((S)-1-methylpyrrolidin-2-yl)methoxy)-5,6,7,8-tetrahydropyrido[3,4-d]pyrimidin-4-yl)(methyl)amino)pyrrolidin-1-yl)-4-oxobut-2-enoic acid], the IC50 is 100 to 500 nM.

Consider `CN1CCC[C@H]1COc1nc2c(c(N(C)[C@@H]3CCN(C(=O)/C=C/S(C)(=O)=O)C3)n1)CCN(c1cccc3cccc(Cl)c13)C2` [Example 9, (E)-1-((R)-3-((7-(8-chloronaphthalen-1-yl)-2-(((S)-1-methylpyrrolidin-2-yl)methoxy)-5,6,7,8-tetrahydropyrido[3,4-d]pyrimidin-4-yl)(methyl)amino)pyrrolidin-1-yl)-3-(methylsulfonyl)prop-2-en-1-one], for which the IC50 was under 10 nM.

With `COC(=O)/C=C/C(=O)N1CC[C@@H](N(C)c2nc(OC[C@@H]3CCCN3C)nc3c2CCN(c2cccc4cccc(Cl)c24)C3)C1` [Example 10, methyl(E)-4-((R)-3-((7-(8-chloronaphthalen-1-yl)-2-(((S)-1-methylpyrrolidin-2-yl)methoxy)-5,6,7,8-tetrahydropyrido[3,4-d]pyrimidin-4-yl)(methyl)amino)pyrrolidin-1-yl)-4-oxobut-2-enoate], the IC50 fell in the range of 10 to 100 nM.

Regarding `CC(C)OC(=O)/C=C/C(=O)N1CC[C@@H](N(C)c2nc(OC[C@@H]3CCCN3C)nc3c2CCN(c2cccc4cccc(Cl)c24)C3)C1` [Example 11, isopropyl(E)-4-((R)-3-((7-(8-chloronaphthalen-1-yl)-2-(((S)-1-methylpyrrolidin-2-yl)methoxy)-5,6,7,8-tetrahydropyrido[3,4-d]pyrimidin-4-yl)(methyl)amino)pyrrolidin-1-yl)-4-oxobut-2-enoate], the IC50 is 10 to 100 nM.

For `CCN(CCNC(=O)/C=C/C(=O)OC)c1nc(OC[C@@H]2CCCN2C)nc2c1CCN(c1cccc3cccc(Cl)c13)C2` [Example 12, methyl(S,E)-4-((2-((7-(8-chloronaphthalen-1-yl)-2-((1-methylpyrrolidin-2-yl)methoxy)-5,6,7,8-tetrahydropyrido[3,4-d]pyrimidin-4-yl)(ethyl)amino)ethyl)amino)-4-oxobut-2-enoate], the IC50 is over 500 nM.

In the case of `COC(=O)/C=C/C(=O)NCCN(C)c1nc(OCC23CCCN2CCC3)nc2c1CCN(c1cccc3cccc(Cl)c13)C2` [Example 13, Methyl(E)-4-((2-((7-(8-chloronaphthalen-1-yl)-2-((tetrahydro-1H-pyrrolizin-7a(5H)-yl)methoxy)-5,6,7,8-tetrahydropyrido[3,4-d]pyrimidin-4-yl)(methyl)amino)ethyl)amino)-4-oxobut-2-enoate], the 50% inhibitory concentration (IC50) fell in the range of 10 to 100 nM.

For the compound `COC(=O)/C=C/C(=O)NC1CCN(c2nc(OC[C@@H]3CCCN3C)nc3c2CCN(c2cccc4cccc(Cl)c24)C3)C1` (stereo partly drawn) [Example 14, methyl(E)-4-((1-(7-(8-chloronaphthalen-1-yl)-2-(((S)-1-methylpyrrolidin-2-yl)methoxy)-5,6,7,8-tetrahydropyrido[3,4-d]pyrimidin-4-yl)pyrrolidin-3-yl)amino)-4-oxobut-2-enoate], the IC50 is over 500 nM.

Regarding `CN1CCC[C@H]1COc1nc2c(c(N(C)[C@H]3CCN(C(=O)/C=C/S(C)(=O)=O)C3)n1)CCN(c1cccc3cccc(Cl)c13)C2` [Example 15, (E)-1-((S)-3-((7-(8-chloronaphthalen-1-yl)-2-(((S)-1-methylpyrrolidin-2-yl)methoxy)-5,6,7,8-tetrahydropyrido[3,4-d]pyrimidin-4-yl)(methyl)amino)pyrrolidin-1-yl)-3-(methylsulfonyl)prop-2-en-1-one], the IC50 was under 10 nM.

As to `COC(=O)/C=C/C(=O)N1CC(CN(C)c2nc(OC[C@@H]3CCCN3C)nc3c2CCN(c2cccc4cccc(Cl)c24)C3)C1` [Example 16, methyl(S,E)-4-(3-(((7-(8-chloronaphthalen-1-yl)-2-((1-methylpyrrolidin-2-yl)methoxy)-5,6,7,8-tetrahydropyrido[3,4-d]pyrimidin-4-yl)(methyl)amino)methyl)azetidin-1-yl)-4-oxobut-2-enoate], the 50% inhibitory concentration (IC50) was 10 to 100 nM.

`COC(=O)/C=C/C(=O)N1C[C@H](N(C)c2nc(OC[C@@H]3CCCN3C)nc3c2CCN(c2cccc4cccc(Cl)c24)C3)C[C@H]1C` [Example 17, methyl(E)-4-((2R,4R)-4-((7-(8-chloronaphthalen-1-yl)-2-(((S)-1-methylpyrrolidin-2-yl)methoxy)-5,6,7,8-tetrahydropyrido[3,4-d]pyrimidin-4-yl)(methyl)amino)-2-methylpyrrolidin-1-yl)-4-oxobut-2-enoate]: the IC50 lay within 10 to 100 nM.

With `CC(C)OC(=O)/C=C/C(=O)N1CC[C@@H](N(C)c2nc(OCC34CCCN3CCC4)nc3c2CCN(c2cccc4cccc(Cl)c24)C3)C1` [Example 18, isopropyl(R,E)-4-(3-((7-(8-chloronaphthalen-1-yl)-2-((tetrahydro-1H-pyrrolizin-7a(5H)-yl)methoxy)-5,6,7,8-tetrahydropyrido[3,4-d]pyrimidin-4-yl)(methyl)amino)pyrrolidin-1-yl)-4-oxobut-2-enoate], the IC50 was under 10 nM.

Consider `C=CC(=O)N1CC[C@@H](N(C)c2nc(OCC34CCCN3CCC4)nc3c2CCN(c2cccc4cccc(Cl)c24)C3)C1` [Example 19, (R)-1-(3-((7-(8-chloronaphthalen-1-yl)-2-((tetrahydro-1H-pyrrolizin-7a(5H)-yl)methoxy)-5,6,7,8-tetrahydropyrido[3,4-d]pyrimidin-4-yl)(methyl)amino)pyrrolidin-1-yl)prop-2-en-1-one], for which the IC50 was 10 to 100 nM.

As for `COC(=O)/C=C/C(=O)N1C[C@H](N(C)c2nc(OCC34CCCN3CCC4)nc3c2CCN(c2cccc4cccc(Cl)c24)C3)C[C@@H]1C` [Example 20, methyl(E)-4-((2S,4R)-4-((7-(8-chloronaphthalen-1-yl)-2-((tetrahydro-1H-pyrrolizin-7a(5H)-yl)methoxy)-5,6,7,8-tetrahydropyrido[3,4-d]pyrimidin-4-yl)(methyl)amino)-2-methylpyrrolidin-1-yl)-4-oxobut-2-enoate], the IC50 lay within 10 to 100 nM.

With `CN(CCNC(=O)/C=C/C(=O)O)c1nc(OC[C@@H]2CCCN2C)nc2c1CCN(c1cccc3cccc(Cl)c13)C2` [Example 21, (S,E)-4-((2-((7-(8-chloronaphthalen-1-yl)-2-((1-methylpyrrolidin-2-yl)methoxy)-5,6,7,8-tetrahydropyrido[3,4-d]pyrimidin-4-yl)(methyl)amino)ethyl)amino)-4-oxobut-2-enoic acid], the IC50 is over 500 nM.

`COC(=O)/C=C/C(=O)NCCN(C)c1nc(OC[C@@H]2CCCN2C)nc2c1CCN(c1cccc3cccc(Cl)c13)C2` [Example 22, methyl(S,E)-4-((2-((7-(8-chloronaphthalen-1-yl)-2-((1-methylpyrrolidin-2-yl)methoxy)-5,6,7,8-tetrahydropyrido[3,4-d]pyrimidin-4-yl)(methyl)amino)ethyl)amino)-4-oxobut-2-enoate]: the IC50 was in the range of 100 to 500 nM.

As for `CN(CCNC(=O)/C=C/S(C)(=O)=O)c1nc(OC[C@@H]2CCCN2C)nc2c1CCN(c1cccc3cccc(Cl)c13)C2` [Example 23, (S,E)-N-(2-((7-(8-chloronaphthalen-1-yl)-2-((1-methylpyrrolidin-2-yl)methoxy)-5,6,7,8-tetrahydropyrido[3,4-d]pyrimidin-4-yl)(methyl)amino)ethyl)-3-(methylsulfonyl)acrylamide], the IC50 lay within 10 to 100 nM.

For `COC(=O)/C=C/C(=O)N1CCC(N(C)c2nc(OC[C@@H]3CCCN3C)nc3c(F)c(-c4cccc5cccc(Cl)c45)ncc23)C1` (stereo partly drawn) [Example 24, methyl(E)-4-(3-((7-(8-chloronaphthalen-1-yl)-8-fluoro-2-(((S)-1-methylpyrrolidin-2-yl)methoxy)pyrido[4,3-d]pyrimidin-4-yl)(methyl)amino)pyrrolidin-1-yl)-4-oxobut-2-enoate], the IC50 was under 10 nM.

For `COC(=O)/C=C/C(=O)N1CC(CN(C)c2nc(OCC34CCCN3CCC4)nc3c(F)c(-c4cccc5cccc(Cl)c45)ncc23)C1` [Example 25, methyl(E)-4-(3-(((7-(8-chloronaphthalen-1-yl)-8-fluoro-2-((tetrahydro-1H-pyrrolizin-7a(5H)-yl)methoxy)pyrido[4,3-d]pyrimidin-4-yl)(methyl)amino)methyl)azetidin-1-yl)-4-oxobut-2-enoate], the IC50 is under 10 nM.
